Results taken from patent US20240317800A1, “NOVEL COMPOUNDS AND ANTIBACTERIAL COMPOSITION COMPRISING THE SAME” (KOREA INSTITUTE OF OCEAN SCIENCE & TECHNOLOGY, priority 2022, published 2024).
Converted amounts (≈) assume the structure as drawn.

These compounds were tested on Mycoplasma hyorhinis ATCC 17981 (assay: Mycoplasma inhibitory activity, broth dilution assay (MIC)). Conditions: ATCC17981, 168 h, PPLO liquid medium, 7 days, 37° C., 5% CO2, lowest concentration at which bacteria did not grow, read-out: MIC (minimum inhibitory concentration).
Format: cell-based
Experimental: For compounds 1 to 3, the inhibitory activity against Mycoplasma hyorhinis was evaluated using a broth dilution assay. Briefly, an experimental strain Mycoplasma hyorhinis ATCC 17981 was cultured in a PPLO liquid medium at 37° C. in a 5% CO2 incubator. […] 100 μL of the culture medium, which made with the strain suspension at approximately 2×10^4 CFU/mL, was added to each well of a 96-well plate. The plates were incubated for 7 days in a 37° C., 5% CO2 incubator. As the bacteria grew, the medium turned yellow. […] BioMycoX® (CellSafe, Korea) was used as a positive control.

| MIC | SMILES |
| --- | --- |
| 31 µg/mL (≈ 44.6 µM) | CCCCCCCCCCC[C@@H]1CC(=O)N[C@@H](CCC(=O)O)C(=O)N[C@@H](CC(C)C)C(=O)N[C@H](CC(C)C)C(=O)N[C@@H](CC(C)C)C(=O)O1 [Compound 1, Bacilotetrin C] |
| 31 µg/mL (≈ 43.7 µM) | CCC(C)CCCCCCCC[C@@H]1CC(=O)N[C@@H](CCC(=O)O)C(=O)N[C@@H](CC(C)C)C(=O)N[C@H](CC(C)C)C(=O)N[C@@H](CC(C)C)C(=O)O1 (stereo partly drawn) [Compound 2, Bacilotetrin D] |
| 31 µg/mL (≈ 43.7 µM) | CC(C)CCCCCCCCC[C@@H]1CC(=O)N[C@@H](CCC(=O)O)C(=O)N[C@@H](CC(C)C)C(=O)N[C@H](CC(C)C)C(=O)N[C@@H](CC(C)C)C(=O)O1 [Compound 3, Bacilotetrin E] |
